Results from US20190322676A1, “CERAMIDE GALACTOSYLTRANSFERASE INHIBITORS FOR THE TREATMENT OF DISEASE” (BioMarin Pharmaceutical Inc., priority 2016, published 2019).
Structures can show the parent of a compound that is named as a salt.

target: T1, human CGT (ceramide galactosyltransferase), CHO/CGT lysate (Homo sapiens, UniProt Q16880); assay: CGT enzyme assay, RapidFire/MS/MS readout (Table 1 ranges with one asterisk *); type: biochemical; details: RapidFire method (range with one asterisk *)
T1 construct: Full-length human CGT cDNA was cloned into the BamH1/Xho1 site of pcDNA3.1 (+); expressed in transfected cells; host or cells: Chinese hamster ovary (CHO) cells; lysate prepared with M-PER
T1 sequence (Q16880 21-541): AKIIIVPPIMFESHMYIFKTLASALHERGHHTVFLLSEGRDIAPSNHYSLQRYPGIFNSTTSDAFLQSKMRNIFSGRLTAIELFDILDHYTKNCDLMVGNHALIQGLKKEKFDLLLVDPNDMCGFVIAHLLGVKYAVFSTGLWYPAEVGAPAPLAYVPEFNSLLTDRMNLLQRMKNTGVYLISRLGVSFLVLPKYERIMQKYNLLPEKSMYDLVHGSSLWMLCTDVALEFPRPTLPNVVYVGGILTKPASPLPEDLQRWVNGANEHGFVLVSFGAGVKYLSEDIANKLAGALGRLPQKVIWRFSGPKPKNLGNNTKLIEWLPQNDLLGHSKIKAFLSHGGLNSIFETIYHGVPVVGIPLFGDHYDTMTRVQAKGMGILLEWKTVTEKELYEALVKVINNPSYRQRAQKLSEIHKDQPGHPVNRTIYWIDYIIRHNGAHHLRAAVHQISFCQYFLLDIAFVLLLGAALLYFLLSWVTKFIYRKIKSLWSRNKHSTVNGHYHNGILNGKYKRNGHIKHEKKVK
Summary of the method: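 Lysate (4 μg) of CHO cells transfected with full-length human CGT incubated 1 h at 37 °C with compound (0.001–50 μM) in pH 7.2 HEPES buffer with 10 μM C6-NBD-dihydro-ceramide, 17.5 μM UDP-galactose, Mg2+/Mn2+, CHAPS, BSA, 0.5% DMSO; ** set also contained 0.01% Tween 80. Product quantified by RapidFire/MS/MS, normalized to internal standard; IC50 from sigmoidal variable-slope fits.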

Compound | IC50 [µM]
CCCCOc1cc(C(F)(F)[C@@H](NS(=O)(=O)c2ccc(OCC3CCCCC3)cc2)C(=O)N2CCC(N)CC2)ccc1Cl [Compound 127-2, (S)—N-(3-(4-aminopiperidin-1-yl)-1-(3-butoxy-4-chlorophenyl)-1,1-difluoro-3-oxopropan-2-yl)-4-(cyclohexylmethoxy)benzenesulfonamide] | 1 to 10
NC1CCN(C(=O)[C@H](NS(=O)(=O)c2ccc3cc(OC4CCCC4)ccc3c2)C(F)(F)c2ccc(OC3CCCCC3)cc2)CC1 [Compound 97-2, (S)—N-(3-(4-aminopiperidin-1-yl)-1-(4-(cyclohexyloxy)phenyl)-1,1-difluoro-3-oxopropan-2-yl)-6-(cyclopentyloxy)naphthalene-2-sulfonamide] | 1 to 10
NC1CCN(C(=O)[C@@H](NS(=O)(=O)c2ccc3cc(OC4CCCC4)ccc3c2)C(F)(F)c2ccc(Cl)cc2)CC1 [Compound 98-1, (R)—N-(3-(4-aminopiperidin-1-yl)-1-(4-chlorophenyl)-1,1-difluoro-3-oxopropan-2-yl)-6-(cyclopentyloxy)naphthalene-2-sulfonamide] | 1 to 10
NC1CCN(C(=O)[C@@H](NS(=O)(=O)c2ccc3cc(OC4CCCC4)ccc3c2)C(F)(F)c2cccc(Oc3ccccc3)c2)CC1 [Compound 108-1, (R)—N-(3-(4-aminopiperidin-1-yl)-1,1-difluoro-3-oxo-1-(3-phenoxyphenyl)propan-2-yl)-6-(cyclopentyloxy)naphthalene-2-sulfonamide] | < 1
NC1CC2CCC(C1)N2C(=O)[C@@H](NS(=O)(=O)c1ccc2cc(OC3CCCC3)ccc2c1)C(F)(F)c1ccc(Oc2ccccc2)cc1 (stereo partly drawn) [Compound 86-1, N-((2R)-3-(3-amino-8-azabicyclo[3.2.1]octan-8-yl)-1,1-difluoro-3-oxo-1-(4-phenoxyphenyl)propan-2-yl)-6-(cyclopentyloxy)naphthalene-2-sulfonamide trifluoroacetate] | < 1
CN([C@H](C(=O)N1C2CCC1CC(N)C2)C(F)(F)c1ccc(Br)cc1)S(=O)(=O)c1ccc2cc(OC3CCCCC3)ccc2c1 (stereo partly drawn) [Compound 37-1, N-((2R)-3-(3-amino-8-azabicyclo[3.2.1]octan-8-yl)-1-(4-bromophenyl)-1,1-difluoro-3-oxopropan-2-yl)-6-(cyclohexyloxy)-N-methylnaphthalene-2-sulfonamide trifluoroacetate] | < 1
NC1CCN(C(=O)[C@@H](NS(=O)(=O)c2ccc(OCC3CCCCC3)cc2)C(F)(F)c2ccc(C(F)(F)F)cc2)CC1 [Compound 72-1, (R)—N-(3-(4-aminopiperidin-1-yl)-1,1-difluoro-3-oxo-1-(4-(trifluoromethyl)phenyl)propan-2-yl)-4-(cyclohexylmethoxy)benzenesulfonamide] | 1 to 10
NC1CC2CCC(C1)N2C(=O)[C@H](NS(=O)(=O)c1ccc2cc(OC3CCCC3)ccc2c1)C(F)(F)c1ccc(-c2ccccc2)cc1 (stereo partly drawn) [Compound 36-2, N-((2S)-1-([1,1′-biphenyl]-4-yl)-3-(3-amino-8-azabicyclo[3.2.1]octan-8-yl)-1,1-difluoro-3-oxopropan-2-yl)-6-(cyclopentyloxy)naphthalene-2-sulfonamide trifluoroacetate] | 1 to 10
CN([C@@H](C(=O)N1C2CCC1CC(N)C2)C(F)(F)c1cccc(Oc2ccccc2)c1)S(=O)(=O)c1ccc2cc(OC3CCCC3)ccc2c1 (stereo partly drawn) [Compound 111-2, N-((2S)-3-(3-amino-8-azabicyclo[3.2.1]octan-8-yl)-1,1-difluoro-3-oxo-1-(3-phenoxyphenyl)propan-2-yl)-6-(cyclopentyloxy)-N-methylnaphthalene-2-sulfonamide trifluoroacetate] | 10 to 30
NC1CCN(C(=O)[C@@H](NS(=O)(=O)c2ccc3c(cnn3CC3CCCC3)c2)C(F)(F)c2ccc(-c3ccc(Cl)cc3)cc2)CC1 [Compound 95-1, (R)—N-(3-(4-aminopiperidin-1-yl)-1-(4′-chloro-[1,1′-biphenyl]-4-yl)-1,1-difluoro-3-oxopropan-2-yl)-1-(cyclopentylmethyl)-1H-indazole-5-sulfonamide] | < 1
NC1CCN(C(=O)[C@H](NS(=O)(=O)c2ccc3cc(OC4CCCC4)ccc3c2)C(F)(F)c2ccc(Br)cc2)CC1 [Compound 32-2, (S)—N-(3-(4-aminopiperidin-1-yl)-1-(4-bromophenyl)-1,1-difluoro-3-oxopropan-2-yl)-6-(cyclopentyloxy)naphthalene-2-sulfonamide trifluoroacetate] | 10 to 30
NC1CC2CCC(C1)N2C(=O)[C@@H](NS(=O)(=O)c1ccc(OCC2CCCCC2)cc1)C(F)(F)c1ccc(Oc2ccccc2)cc1 (stereo partly drawn) [Compound 84-1, N-((2R)-3-(3-amino-8-azabicyclo[3.2.1]octan-8-yl)-1,1-difluoro-3-oxo-1-(4-phenoxyphenyl)propan-2-yl)-4-(cyclohexylmethoxy)benzenesulfonamide] | 1 to 10
NC1CCN(C(=O)[C@@H](NS(=O)(=O)c2ccc(OCC3CCCCC3)cc2)C(F)(F)c2ccc(Oc3ccccc3)cc2)CC1 [Compound 63-1, (R)—N-(3-(4-aminopiperidin-1-yl)-1,1-difluoro-3-oxo-1-(4-phenoxyphenyl)propan-2-yl)-4-(cyclohexylmethoxy)benzenesulfonamide trifluoroacetate] | 1 to 10
NC1CC2CCC(C1)N2C(=O)[C@H](NS(=O)(=O)c1ccc(OCC2CCCCC2)cc1)C(F)(F)c1ccc(-c2ccccc2)cc1 (stereo partly drawn) [Compound 35-2, N-((2S)-1-([1,1′-biphenyl]-4-yl)-3-(3-amino-8-azabicyclo[3.2.1]octan-8-yl)-1,1-difluoro-3-oxopropan-2-yl)-4-(cyclohexylmethoxy) benzenesulfonamide trifluoroacetate] | 10 to 30
NC1CC2CCC(C1)N2C(=O)[C@H](NC(=O)[C@H](O)c1ccc2cc(OC3CCCC3)ccc2c1)C(F)(F)c1ccc(-c2ccc(Cl)cc2)cc1 (stereo partly drawn) [Compound 136-4, (2R)—N-((2S)-3-(3-amino-8-azabicyclo[3.2.1]octan-8-yl)-1-(4′-chloro-[1,1′-biphenyl]-4-yl)-1,1-difluoro-3-oxopropan-2-yl)-2-(6-(cyclopentyloxy)naphthalen-2-yl)-2-hydroxyacetamide trifluoroacetate] | 30 to 100
NC1CC2CCC(C1)N2C(=O)[C@H](NS(=O)(=O)c1ccc2cc(OC3CCCCC3)ccc2c1)C(F)(F)c1ccc(Br)cc1 (stereo partly drawn) [Compound 33-2, N-((2S)-3-(3-amino-8-azabicyclo[3.2.1]octan-8-yl)-1-(4-bromophenyl)-1,1-difluoro-3-oxopropan-2-yl)-6-(cyclohexyloxy)naphthalene-2-sulfonamide trifluoroacetate] | 30 to 100
CN([C@@H](C(=O)N1CCC(N)CC1)C(F)(F)c1ccc(Oc2ccccc2)cc1)S(=O)(=O)c1ccc(OCC2CCCCC2)cc1 [Compound 64-2, (S)—N-(3-(4-aminopiperidin-1-yl)-1,1-difluoro-3-oxo-1-(4-phenoxyphenyl)propan-2-yl)-4-(cyclohexylmethoxy)-N-methylbenzenesulfonamide] | 10 to 30
COc1ccc(C(F)(F)[C@H](NS(=O)(=O)c2ccc3cc(OC4CCCC4)ccc3c2)C(=O)N2C3CCC2CC(N)C3)cc1 (stereo partly drawn) [Compound 45-1, N-((2R)-3-(3-amino-8-azabicyclo[3.2.1]octan-8-yl)-1,1-difluoro-1-(4-methoxyphenyl)-3-oxopropan-2-yl)-6-(cyclopentyloxy)naphthalene-2-sulfonamide] | 10 to 30
NC1CCN(C(=O)[C@H](NS(=O)(=O)c2ccc3cc(OC4CCCC4)ccc3c2)C(F)(F)c2cccc(-c3ccccc3)c2)CC1 [Compound 69-2, (S)—N-(1-([1,1′-biphenyl]-3-yl)-3-(4-aminopiperidin-1-yl)-1,1-difluoro-3-oxopropan-2-yl)-6-(cyclopentyloxy)naphthalene-2-sulfonamide trifluoroacetate] | 30 to 100
NC1CC2CCC(C1)N2C(=O)[C@H](NS(=O)(=O)c1ccc(OCC2CCCCC2)cc1)C(F)(F)c1ccc(-c2ccc(Cl)cc2)cc1 (stereo partly drawn) [Compound 50-2, N-((2S)-3-(3-amino-8-azabicyclo[3.2.1]octan-8-yl)-1-(4′-chloro-[1,1′-biphenyl]-4-yl)-1,1-difluoro-3-oxopropan-2-yl)-4-(cyclohexylmethoxy)benzenesulfonamide trifluoroacetate] | 10 to 30
CCCCOc1ccc(C(F)(F)[C@H](C(=O)N2C3CCC2CC(N)C3)N(C)S(=O)(=O)c2ccc(OCC3CCCCC3)cc2)cc1 (stereo partly drawn) [Compound 79-2, N-((2S)-3-(3-amino-8-azabicyclo[3.2.1]octan-8-yl)-1-(4-butoxyphenyl)-1,1-difluoro-3-oxopropan-2-yl)-4-(cyclohexylmethoxy)-N-methylbenzenesulfonamide] | 1 to 10
NC1CC2CCC(C1)N2C(=O)[C@H](NS(=O)(=O)c1ccc2cc(OC3CCCC3)ccc2c1)C(F)(F)c1ccc(-c2ccc(Cl)s2)cc1 (stereo partly drawn) [Compound 101-2, N-((2S)-3-(3-amino-8-azabicyclo[3.2.1]octan-8-yl)-1-(4-(5-chlorothiophen-2-yl)phenyl)-1,1-difluoro-3-oxopropan-2-yl)-6-(cyclopentyloxy)naphthalene-2-sulfonamide] | 1 to 10
